According to ChEMBL document CHEMBL1743341, “Cytochrome p450 enzymes mechanism based inhibitors: common sub-structures and reactivity” (Curr Drug Metab, 2005):
Values belong to the molecule of their own block, whether it stands above or below them.

Experiments:
CYP2B6 = molecular target: T1, CYP2B6 (Homo sapiens, UniProt P20813); experiment: (§1) Mechanism based inhibition of human cytochrome P450 2B6; type: ADME; details: human
T1 sequence (P20813 whole entry): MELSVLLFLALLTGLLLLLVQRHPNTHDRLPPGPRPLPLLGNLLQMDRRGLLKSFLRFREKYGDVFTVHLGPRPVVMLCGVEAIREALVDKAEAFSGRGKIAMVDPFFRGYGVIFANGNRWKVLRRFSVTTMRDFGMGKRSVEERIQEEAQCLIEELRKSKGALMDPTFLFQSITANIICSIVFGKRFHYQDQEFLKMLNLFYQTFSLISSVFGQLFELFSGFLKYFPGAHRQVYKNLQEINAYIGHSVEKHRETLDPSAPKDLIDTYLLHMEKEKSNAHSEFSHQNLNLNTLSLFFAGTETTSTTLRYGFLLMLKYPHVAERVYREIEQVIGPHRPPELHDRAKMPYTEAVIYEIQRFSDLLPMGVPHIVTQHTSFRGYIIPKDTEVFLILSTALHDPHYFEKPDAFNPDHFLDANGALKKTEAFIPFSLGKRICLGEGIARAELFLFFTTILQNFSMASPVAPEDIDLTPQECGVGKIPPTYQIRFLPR

Cytochrome P450 2B6 [1] = molecular target: T2, Cytochrome P450 2B6 (Homo sapiens, UniProt P20813); experiment: as §1; type: ADME
T2 sequence (P20813 whole entry): T1 sequence (P20813 whole entry)

CYP2E1 = CYP2E1 (Homo sapiens, UniProt P05181); experiment: (§2) Mechanism based inhibition of human cytochrome P450 2E1 measured in vivo; type: ADME, organism-based; details: human, in vivo
Sequence of CYP2E1 (P05181 whole entry): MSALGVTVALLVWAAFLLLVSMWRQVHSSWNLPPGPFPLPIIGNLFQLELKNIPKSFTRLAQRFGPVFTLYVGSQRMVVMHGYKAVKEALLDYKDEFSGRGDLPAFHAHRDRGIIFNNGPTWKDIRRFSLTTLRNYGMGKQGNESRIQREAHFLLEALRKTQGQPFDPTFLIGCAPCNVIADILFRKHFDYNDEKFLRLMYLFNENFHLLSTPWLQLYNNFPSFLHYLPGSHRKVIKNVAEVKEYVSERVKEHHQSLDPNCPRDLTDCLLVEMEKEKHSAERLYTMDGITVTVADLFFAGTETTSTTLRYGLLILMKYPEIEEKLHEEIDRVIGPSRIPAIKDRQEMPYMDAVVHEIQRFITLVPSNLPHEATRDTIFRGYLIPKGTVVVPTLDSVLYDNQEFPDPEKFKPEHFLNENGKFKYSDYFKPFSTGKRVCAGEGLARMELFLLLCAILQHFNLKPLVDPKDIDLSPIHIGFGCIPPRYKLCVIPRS

Cytochrome P450 2E1 = Cytochrome P450 2E1 (Homo sapiens, UniProt P05181); experiment: as §2; type: ADME, organism-based
Sequence of Cytochrome P450 2E1 (P05181 whole entry): as above

Cytochrome P450 3A4 [2] = molecular target: T3, Cytochrome P450 3A4 (Homo sapiens, UniProt P08684); experiment: (§3) Mechanism based inhibition of human cytochrome P450 3A4 measured by testosterone 6-beta hydroxylation; type: ADME
T3 sequence (P08684 whole entry): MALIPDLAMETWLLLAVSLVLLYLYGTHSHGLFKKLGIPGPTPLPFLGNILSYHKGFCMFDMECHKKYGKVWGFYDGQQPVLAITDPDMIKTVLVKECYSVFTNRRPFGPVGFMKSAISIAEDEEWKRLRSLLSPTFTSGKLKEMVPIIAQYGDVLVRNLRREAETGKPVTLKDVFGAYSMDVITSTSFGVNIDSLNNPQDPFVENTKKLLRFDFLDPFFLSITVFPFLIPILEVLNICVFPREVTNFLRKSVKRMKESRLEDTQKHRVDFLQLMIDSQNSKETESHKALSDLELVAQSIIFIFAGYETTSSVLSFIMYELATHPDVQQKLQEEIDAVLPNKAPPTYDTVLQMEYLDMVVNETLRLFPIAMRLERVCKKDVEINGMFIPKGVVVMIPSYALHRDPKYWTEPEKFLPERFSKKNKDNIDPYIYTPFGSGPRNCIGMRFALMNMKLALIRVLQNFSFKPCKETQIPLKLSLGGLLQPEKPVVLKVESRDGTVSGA

Cytochrome P450 3A4 [3] = molecular target: T3, Cytochrome P450 3A4; experiment: Mechanism based inhibition of human cytochrome P450 3A4 measured by testosterone 6-beta hydroxylation and erythromycin N-demethylation; type: ADME
CYP3A5 = CYP3A5 (Homo sapiens, UniProt P20815); experiment: (§4) Mechanism based inhibition of human cytochrome P450 3A5; type: ADME; details: human
Sequence of CYP3A5 (P20815 whole entry): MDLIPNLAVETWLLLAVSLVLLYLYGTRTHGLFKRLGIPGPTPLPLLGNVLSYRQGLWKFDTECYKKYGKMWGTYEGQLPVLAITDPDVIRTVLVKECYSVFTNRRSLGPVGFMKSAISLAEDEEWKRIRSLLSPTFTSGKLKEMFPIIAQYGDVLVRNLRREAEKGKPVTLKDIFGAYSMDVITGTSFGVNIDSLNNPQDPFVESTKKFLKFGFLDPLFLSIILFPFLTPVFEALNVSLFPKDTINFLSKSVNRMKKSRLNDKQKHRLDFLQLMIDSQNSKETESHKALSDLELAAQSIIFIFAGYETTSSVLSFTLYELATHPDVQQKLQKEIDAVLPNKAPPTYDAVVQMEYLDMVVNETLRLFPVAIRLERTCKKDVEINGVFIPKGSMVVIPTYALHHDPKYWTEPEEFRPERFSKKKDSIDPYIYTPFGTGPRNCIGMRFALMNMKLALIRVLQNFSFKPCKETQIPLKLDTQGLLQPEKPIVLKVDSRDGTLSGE

Cytochrome P450 3A5 [4] = molecular target: T4, Cytochrome P450 3A5 (Homo sapiens, UniProt P20815); experiment: as §4; type: ADME
T4 sequence (P20815 whole entry): as above

CYP2B4 = molecular target: T5, CYP2B4 (Oryctolagus cuniculus, UniProt P00178); experiment: (§5) Mechanism based inhibition of rabbit cytochrome P450 2B4; type: ADME; details: rabbit
T5 sequence (P00178 whole entry): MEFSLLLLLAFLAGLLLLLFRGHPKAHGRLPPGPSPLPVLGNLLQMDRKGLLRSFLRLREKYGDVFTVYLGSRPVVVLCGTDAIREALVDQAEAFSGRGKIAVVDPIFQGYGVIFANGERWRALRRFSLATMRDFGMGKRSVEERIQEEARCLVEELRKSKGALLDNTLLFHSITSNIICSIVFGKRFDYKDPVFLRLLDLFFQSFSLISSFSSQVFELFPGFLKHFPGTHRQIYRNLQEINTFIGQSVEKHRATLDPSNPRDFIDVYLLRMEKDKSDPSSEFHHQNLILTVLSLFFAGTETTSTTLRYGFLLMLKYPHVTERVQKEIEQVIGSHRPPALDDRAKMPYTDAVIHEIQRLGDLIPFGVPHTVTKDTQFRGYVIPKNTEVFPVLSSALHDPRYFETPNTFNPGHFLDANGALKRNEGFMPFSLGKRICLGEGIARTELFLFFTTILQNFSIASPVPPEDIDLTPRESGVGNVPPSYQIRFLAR

Cytochrome P450 2B4 = molecular target: T6, Cytochrome P450 2B4 (Oryctolagus cuniculus, UniProt P00178); experiment: as §5; type: ADME
T6 sequence (P00178 whole entry): T5 sequence (P00178 whole entry)

CYP2B1 = molecular target: T7, CYP2B1 (Rattus norvegicus, UniProt P00176); experiment: (§6) Mechanism based inhibition of rat cytochrome P450 2B1; type: ADME; details: rat
T7 sequence (P00176 whole entry): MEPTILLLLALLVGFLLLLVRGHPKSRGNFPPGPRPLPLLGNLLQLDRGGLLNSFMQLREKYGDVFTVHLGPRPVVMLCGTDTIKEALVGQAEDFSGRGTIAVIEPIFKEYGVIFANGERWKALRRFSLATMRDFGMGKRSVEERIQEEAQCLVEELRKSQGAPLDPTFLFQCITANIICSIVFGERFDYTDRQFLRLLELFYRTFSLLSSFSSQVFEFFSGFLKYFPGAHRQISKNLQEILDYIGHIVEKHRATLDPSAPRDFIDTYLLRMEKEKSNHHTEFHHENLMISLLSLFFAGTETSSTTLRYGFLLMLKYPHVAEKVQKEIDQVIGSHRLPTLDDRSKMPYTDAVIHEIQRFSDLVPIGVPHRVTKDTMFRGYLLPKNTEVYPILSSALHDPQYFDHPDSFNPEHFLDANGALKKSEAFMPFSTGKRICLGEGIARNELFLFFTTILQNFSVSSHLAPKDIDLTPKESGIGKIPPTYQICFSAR

Cytochrome P450 2B1 [5] = molecular target: T8, Cytochrome P450 2B1 (Rattus norvegicus, UniProt P00176); experiment: as §6; type: ADME
T8 sequence (P00176 whole entry): T7 sequence (P00176 whole entry)

Cytochrome P450 2B6 [6] = molecular target: T2, Cytochrome P450 2B6; experiment: Mechanism based inhibition of human cytochrome P450 2B6, partition ratio; type: ADME
Cytochrome P450 3A5 [7] = molecular target: T4, Cytochrome P450 3A5; experiment: Mechanism based inhibition of human cytochrome P450 3A5, partition ratio; type: ADME
CYP3A4 [8] = molecular target: T9, CYP3A4 (Homo sapiens, UniProt P08684); experiment: (§7) Mechanism based inhibition of human cytochrome P450 3A4 measured by midazolam 1'-hydroxylation; type: ADME; details: probe midazolam (1'-hydroxylation)
T9 sequence (P08684 whole entry): as the sequence (P08684 whole entry) above

Cytochrome P450 3A4 [9] = molecular target: T3, Cytochrome P450 3A4; experiment: as §7; type: ADME
CYP3A4 [10] = molecular target: T9, CYP3A4; experiment: as §3; type: ADME; details: human, probe testosterone (6-beta hydroxylation)
CYP2A6 [11] = molecular target: T10, CYP2A6 (Homo sapiens, UniProt P11509); experiment: (§8) Mechanism based inhibition of human cytochrome P450 2A6 measured by coumarin 7-hydroxylation using human liver microsomes; type: ADME, Microsome; details: human, human liver microsomes, probe coumarin
T10 sequence (P11509 whole entry): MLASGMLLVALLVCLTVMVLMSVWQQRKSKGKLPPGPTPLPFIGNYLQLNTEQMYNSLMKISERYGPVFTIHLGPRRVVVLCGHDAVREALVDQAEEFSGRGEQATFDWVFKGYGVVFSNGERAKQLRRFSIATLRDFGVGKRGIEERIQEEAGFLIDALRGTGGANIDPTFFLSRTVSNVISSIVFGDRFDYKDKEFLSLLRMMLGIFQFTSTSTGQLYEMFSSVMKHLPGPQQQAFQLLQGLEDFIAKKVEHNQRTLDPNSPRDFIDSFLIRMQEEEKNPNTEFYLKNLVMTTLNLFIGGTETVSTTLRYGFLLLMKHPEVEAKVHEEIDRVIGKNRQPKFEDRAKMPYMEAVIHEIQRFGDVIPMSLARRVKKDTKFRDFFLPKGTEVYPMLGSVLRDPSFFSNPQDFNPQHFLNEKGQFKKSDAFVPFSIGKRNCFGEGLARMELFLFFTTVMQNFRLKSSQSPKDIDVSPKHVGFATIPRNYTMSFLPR

Cytochrome P450 2A6 [12] = molecular target: T11, Cytochrome P450 2A6 (Homo sapiens, UniProt P11509); experiment: as §8; type: ADME, Microsome
T11 sequence (P11509 whole entry): T10 sequence (P11509 whole entry)

Cytochrome P450 2A6 [13] = molecular target: T11, Cytochrome P450 2A6; experiment: Mechanism based inhibition of human cytochrome P450 2A6, partition ratio; type: ADME
CYP2A6 [14] = molecular target: T10, CYP2A6; experiment: (§9) Mechanism based inhibition of human cytochrome P450 2A6 measured by coumarin 7-hxdroxylation using purified P450; type: ADME; details: human, purified CYP2A6, probe coumarin (7-hydroxylation)
Cytochrome P450 2A6 [15] = molecular target: T11, Cytochrome P450 2A6; experiment: as §9; type: ADME
Cytochrome P450 2C9 = Cytochrome P450 2C9 (Homo sapiens, UniProt P11712); experiment: Mechanism based inhibition of human cytochrome P450 2C9; type: ADME
Sequence of Cytochrome P450 2C9 (P11712 whole entry): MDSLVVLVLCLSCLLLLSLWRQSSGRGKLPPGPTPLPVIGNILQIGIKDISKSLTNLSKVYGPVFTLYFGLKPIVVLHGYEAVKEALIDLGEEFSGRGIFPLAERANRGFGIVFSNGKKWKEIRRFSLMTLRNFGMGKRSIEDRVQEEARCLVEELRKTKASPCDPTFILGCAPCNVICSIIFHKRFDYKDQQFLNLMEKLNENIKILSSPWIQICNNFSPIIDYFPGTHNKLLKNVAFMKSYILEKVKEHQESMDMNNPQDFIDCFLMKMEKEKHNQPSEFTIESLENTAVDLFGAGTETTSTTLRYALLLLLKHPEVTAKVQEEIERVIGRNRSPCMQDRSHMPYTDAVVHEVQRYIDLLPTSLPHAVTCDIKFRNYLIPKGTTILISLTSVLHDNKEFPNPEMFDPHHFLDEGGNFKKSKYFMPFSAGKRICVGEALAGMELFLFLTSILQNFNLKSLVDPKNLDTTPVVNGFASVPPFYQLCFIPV

Cytochrome P450 2B1 [16] = molecular target: T8, Cytochrome P450 2B1; experiment: Mechanism based inhibition of rat cytochrome P450 2B1, partition ratio; type: ADME

kinact (CYP2B6): 0.00145 s⁻¹
Ki (Cytochrome P450 2B6 [1]): 5.2 µM
kinact (CYP2E1): 0.00133 s⁻¹
Ki (Cytochrome P450 2E1): 40 µM
Ki (Cytochrome P450 3A4 [3]): 7.7 µM
kinact (CYP3A5): 0.00075 s⁻¹
Ki (Cytochrome P450 3A5 [4]): 20 µM
kinact (CYP2B4): 0.00113 s⁻¹
Ki (Cytochrome P450 2B4): 2.8 µM
kinact (CYP2B1): 0.000817 s⁻¹
Ki (Cytochrome P450 2B1 [5]): 2.4 µM
Partition ratio (Cytochrome P450 2B6 [6]): 2
Partition ratio (Cytochrome P450 3A5 [7]): 20
Structure (SMILES): CC(C)=CCC/C(C)=C/COc1c2ccoc2cc2oc(=O)ccc12 [BERGAMOTTIN]
mechanism based inhibition (Cytochrome P450 3A4 [2]): Cytochrome P450 mechanistic inhibitor: PMID 10859150

kinact (CYP3A4 [8]): 0.00217 s⁻¹
Ki (Cytochrome P450 3A4 [9]): 12 µM
kinact (CYP3A4 [10]): 0.00133 s⁻¹
Ki (Cytochrome P450 3A4 [2]): 2.6 µM
Structure (SMILES): CC/C(=C(\c1ccccc1)c1ccc(OCCN)cc1)c1ccccc1 [DESMETHYL TAMOXIFEN]

Structure (SMILES): Cc1coc2c1CCC(C)C2 (stereo not given) [MENTHOFURAN]
kinact (CYP2A6 [11]): 0.00367 s⁻¹
Ki (Cytochrome P450 2A6 [12]): 2.5 µM
Partition ratio (Cytochrome P450 2A6 [13]): 3.5
kinact (CYP2A6 [14]): 0.00417 s⁻¹
Ki (Cytochrome P450 2A6 [15]): 0.84 µM

Structure (SMILES): CC(C)(c1ccccc1)N1CCCCC1
kinact (CYP2B6): 0.00117 s⁻¹
Ki (Cytochrome P450 2B6 [1]): 1.2 µM
mechanism based inhibition (Cytochrome P450 2C9): Cytochrome P450 mechanistic inhibitor: PMID 10901701
kinact (CYP2B1): 0.005 s⁻¹
Ki (Cytochrome P450 2B1 [5]): 12 µM
Partition ratio (Cytochrome P450 2B6 [6]): 15
Partition ratio (Cytochrome P450 2B1 [16]): 31
